Patent US8883782B2, “Spiro-tetracyclic ring compounds as beta-secretase modulators and methods of use” (Amgen Inc., priority 2010, dated 2014)
Where two headings read alike, the source gives them in different places.

What was measured:
[1] = target: Beta Secretase enzyme (BACE) (Homo sapiens, UniProt P56817); test: In vitro enzymatic BACE FRET (fluorescence resonance energy transfer) assay; type: biochemical; conditions: average IC50, enzyme assay; read-out: BACE 1 FRET assay
In short: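 Acetate buffer (0.05 M, pH 4.2), 10% DMSO final, 100 uM nonionic detergent genapol. Substrate addition (50 nM FRET peptide) initiates; one-hour incubation; Tris raises pH to neutrality before fluorescence measurement.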

[2] = test system: Aβ40 in conditioned medium of cells stably expressing Amyloid Precursor Protein (APP); test: In vitro BACE cell-based assay (Aβ40 in conditioned medium, sandwich ELISA); conditions: read-out: HEK cell assay
In short: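 Conditioned medium from stably APP-expressing cells treated with compound dose series is assayed for Aβ40 by sandwich ELISA with time-resolved fluorescence detection. IC50 is calculated from percent inhibition of Aβ40 against compound concentration.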

[3] = Homo sapiens, HEK293, average IC50, HEK cells
[4] = Homo sapiens, HEK293, average IC50

Sequence of Beta Secretase enzyme (BACE) (P56817 46-501, species assumed): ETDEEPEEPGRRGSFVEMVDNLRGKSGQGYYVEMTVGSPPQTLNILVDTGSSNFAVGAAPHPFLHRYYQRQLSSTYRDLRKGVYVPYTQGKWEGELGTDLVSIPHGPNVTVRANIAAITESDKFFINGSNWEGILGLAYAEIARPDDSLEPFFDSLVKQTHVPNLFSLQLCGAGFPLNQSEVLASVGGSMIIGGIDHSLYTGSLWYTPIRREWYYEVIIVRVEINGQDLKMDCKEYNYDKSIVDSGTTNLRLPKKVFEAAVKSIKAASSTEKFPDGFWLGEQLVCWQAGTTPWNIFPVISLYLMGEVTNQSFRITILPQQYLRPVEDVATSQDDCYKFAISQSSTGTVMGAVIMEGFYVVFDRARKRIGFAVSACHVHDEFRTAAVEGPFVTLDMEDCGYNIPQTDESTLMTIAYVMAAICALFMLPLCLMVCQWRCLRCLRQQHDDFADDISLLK

Row | Structure (SMILES) | IC50 [1] | IC50 [2, 3] | IC50 [2, 4] | IC50 ([2]; average IC50, HEK cells)
1 | CC1(C#Cc2cnc3c(c2)[C@]2(COC(N)=N2)c2cc(OCc4ccccc4)ccc2O3)COC1 [Example 973, (5S)-7-(benzyloxy)-3-((3-methyl-3-oxetanyl)ethynyl)spiro[chromeno[2,3-b]pyridine-5,4′-[1,3]oxazol]-2′-amine] | 187 nM |  | 1370 nM | 
2 | NC1=N[C@]2(CS1)c1cc(-c3cccnc3)ccc1Oc1ncc(C3=CCOCC3)cc12 [Example 585, (5R)-3-(3,6-dihydro-2H-pyran-4-yl)-7-(3-pyridinyl)spiro[chromeno[2,3-b]pyridine-5,4′-[1,3]thiazol]-2′-amine] | 2.5 nM | 18.1 nM |  | 
3 | NC1=N[C@@]2(CO1)c1cc(-c3cnccc3F)ccc1Oc1c(F)cc(C3CCOCC3)cc12 [Example 1056, (4S)-4′-fluoro-7′-(4-fluoro-3-pyridinyl)-2′-(tetrahydro-2H-pyran-4-yl)spiro[1,3-oxazole-4,9′-xanthen]-2-amine] | 3 nM |  | 17 nM | 
4 | COc1cncc(-c2ccc3c(c2)[C@@]2(COC(N)=N2)c2cc(C4CCOCC4)cc(F)c2O3)c1 [Example 937, (4S)-4′-fluoro-7′-(5-methoxy-3-pyridinyl)-2′-(tetrahydro-2H-pyran-4-yl)spiro[1,3-oxazole-4,9′-xanthen]-2-amine] | 1.7 nM | 28 nM |  | 
5 | COc1cc(-c2cc3c(cn2)Oc2ccc(-c4cccnc4F)cc2[C@@]32COC(N)=N2)ccc1F [Example 537, (5S)-3-(4-fluoro-3-methoxyphenyl)-7-(2-fluoro-3-pyridinyl)spiro[chromeno[2,3-c]pyridine-5,4′-[1,3]oxazol]-2′-amine] | 7.6 nM | 303 nM |  | 
6 | CC1(C)CC(c2cc3c(cn2)Oc2ccc(-c4ccc(F)nc4)cc2[C@@]32COC(N)=N2)=CCO1 [Example 370, (5S)-3-(2,2-dimethyl-3,6-dihydro-2H-pyran-4-yl)-7-(6-fluoro-3-pyridinyl)spiro[chromeno[2,3-c]pyridine-5,4′-[1,3]oxazol]-2′-amine] | 3.6 nM |  | 23.7 nM | 
7 | NC1=N[C@@]2(CO1)c1cc(-c3cccnc3F)ccc1Oc1c(F)cc(-c3cnccn3)cc12 [Example 205, (4S)-4′-fluoro-7′-(2-fluoro-3-pyridinyl)-2′-(2-pyrazinyl)spiro[1,3-oxazole-4,9′-xanthen]-2-amine] | 1.6 nM |  | 10.1 nM | 

Further compounds by falling IC50 [1], results first:

Row | IC50 [1] | IC50 [2, 3] | IC50 [2, 4] | IC50 ([2]; average IC50, HEK cells) | Structure (SMILES)
8 | 986 nM | 762 nM |  |  | CC1(C#Cc2cnc3c(c2)[C@@]2(COC(N)=N2)c2cc(-c4cncc(F)c4)c(F)cc2O3)COC1 [Example 624, (5R)-8-fluoro-7-(5-fluoro-3-pyridinyl)-3-((3-methyl-3-oxetanyl)ethynyl)spiro[chromeno[2,3-b]pyridine-5,4′-[1,3]oxazol]-2′-amine]
9 | 25.9 nM |  | 2560 nM |  | NC1=N[C@@]2(CO1)c1cc(-c3cccnc3F)ccc1Oc1cnc(-c3ccnc(O)c3)cc12 [Example 842, 4-((5S)-2′-amino-7-(2-fluoro-3-pyridinyl)spiro[chromeno[2,3-c]pyridine-5,4′-[1,3]oxazol]-3-yl)-2-pyridinol]
10 | 5.7 nM |  |  | 498 nM | COC[C@H]1SC(N)=NC12c1cc(-c3cccnc3F)ccc1Oc1c(F)cc(OC)cc12 (stereo partly drawn) [Example 1092, (4S/R,5S)-4′-fluoro-7′-(2-fluoropyridin-3-yl)-2′-methoxy-5-(methoxymethyl)-5H-spiro[thiazole-4,9′-xanthen]-2-amine]
11 | 4.1 nM |  | 21.5 nM |  | CC1(COc2cc3c(cc2F)Oc2ccc(-c4cncc(F)c4)cc2[C@@]32COC(N)=N2)COC1 [Example 327, (4S)-3′-fluoro-7′-(5-fluoro-3-pyridinyl)-2′-((3-methyl-3-oxetanyl)methoxy)spiro[1,3-oxazole-4,9′-xanthen]-2-amine]
12 | 2.9 nM |  | 11.6 nM |  | CC1(C#Cc2cnc3c(c2)[C@]2(COC(N)=N2)c2cc(-c4cncc(C(F)(F)F)c4)ccc2O3)COC1 [Example 187, (5S)-3-((3-methyl-3-oxetanyl)ethynyl)-7-(5-(trifluoromethyl)-3-pyridinyl)spiro[chromeno[2,3-b]pyridine-5,4′-[1,3]oxazol]-2′-amine]
